Results reported in ChEMBL document CHEMBL1132382 (J Med Chem, 1999).
pKi: −log10 of the molar value. Values after ≈ are worked out from the molar mass of the structure shown. Values belong to the molecule of their own block, whether it stands above or below them.

Legend:
[1] = organism: Oryctolagus cuniculus; assay: The compound was evaluated for fall in intraocular pressure (IOP) of Glaucomatous rabbits after treatment with one drop (50 microL) of a 2% solution at 0 min (pH 6.5); format: functional, Eye
[2] = organism: Oryctolagus cuniculus; assay: The compound was evaluated for fall in intraocular pressure (IOP) of Normotensive rabbits after treatment with one drop (50 microL) of a 2% solution at 0 min (pH 6.5); format: functional, Eye
[3] = organism: Oryctolagus cuniculus; assay: The compound was evaluated for fall in intraocular pressure (IOP) of Glaucomatous rabbits after treatment with one drop (50 microL) of a 2% solution at 60 min (pH 6.5); format: functional, Eye
[4] = organism: Oryctolagus cuniculus; assay: The compound was evaluated for fall in intraocular pressure (IOP) of Normotensive rabbits after treatment with one drop (50 microL) of a 2% solution at 30 min (pH 6.5); format: functional, Eye
[5] = organism: Oryctolagus cuniculus; assay: The compound was evaluated for fall in intraocular pressure (IOP) of Normotensive rabbits after treatment with one drop (50 microL) of a 2% solution at 90 min (pH 6.5); format: functional, Eye
[6] = molecular target: T1, Carbonic anhydrase 4 (Bos taurus, UniProt Q95323)
T1 sequence (Q95323 whole entry): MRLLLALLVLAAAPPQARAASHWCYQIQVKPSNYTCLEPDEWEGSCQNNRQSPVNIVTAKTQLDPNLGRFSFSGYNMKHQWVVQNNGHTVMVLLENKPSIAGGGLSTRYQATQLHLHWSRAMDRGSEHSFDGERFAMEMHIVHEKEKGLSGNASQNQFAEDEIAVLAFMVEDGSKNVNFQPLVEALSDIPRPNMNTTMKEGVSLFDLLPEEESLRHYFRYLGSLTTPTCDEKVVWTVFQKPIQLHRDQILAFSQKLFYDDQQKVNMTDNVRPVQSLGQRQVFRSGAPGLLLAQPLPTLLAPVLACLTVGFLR
Description: Inhibitory activity against bovine carbonic anhydrase IV (CA4), isolated from bovine lung microsomes

[7] = organism: Oryctolagus cuniculus; assay: The compound was evaluated for fall in intraocular pressure (IOP) of Glaucomatous rabbits after treatment with one drop (50 microL) of a 2% solution at 30 min (pH 6.5); format: functional, Eye
[8] = organism: Oryctolagus cuniculus; assay: The compound was evaluated for fall in intraocular pressure (IOP) of Glaucomatous rabbits after treatment with one drop (50 microL) of a 2% solution at 90 min (pH 6.5); format: functional, Eye
[9] = molecular target: Carbonic anhydrase 1 (Homo sapiens, UniProt P00915)
Sequence of Carbonic anhydrase 1 (P00915 whole entry): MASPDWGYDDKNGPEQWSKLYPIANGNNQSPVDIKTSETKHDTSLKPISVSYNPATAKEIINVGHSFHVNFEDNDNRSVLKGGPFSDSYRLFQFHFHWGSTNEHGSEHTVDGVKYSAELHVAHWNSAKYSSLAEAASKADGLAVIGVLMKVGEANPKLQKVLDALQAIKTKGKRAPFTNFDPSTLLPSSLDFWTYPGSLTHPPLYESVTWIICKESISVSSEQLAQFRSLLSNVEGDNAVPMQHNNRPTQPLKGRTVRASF
Description: Inhibitory activity against human recombinant carbonic anhydrase I (CA1)

[10] = organism: Oryctolagus cuniculus; assay: The compound was evaluated for fall in intraocular pressure (IOP) of Normotensive rabbits after treatment with one drop (50 microL) of a 2% solution at 60 min (pH 6.5); format: functional, Eye
[11] = organism: Oryctolagus cuniculus; assay: The compound was evaluated for fall in intraocular pressure (IOP) of Glaucomatous rabbits after treatment with one drop (50 microL) of a 2% solution at 30 min (pH 6.4); format: functional, Eye
[12] = organism: Oryctolagus cuniculus; assay: The compound was evaluated for fall in intraocular pressure (IOP) of Glaucomatous rabbits after treatment with one drop (50 microL) of a 2% solution at 60 min (pH 6.4); format: functional, Eye
[13] = organism: Oryctolagus cuniculus; assay: The compound was evaluated for fall in intraocular pressure (IOP) of Narmotensive rabbits after treatment with one drop (50 microL) of a 2% solution at 0 min (pH 6.4); format: functional, Eye
[14] = organism: Oryctolagus cuniculus; assay: The compound was evaluated for fall in intraocular pressure (IOP) of Glaucomatous rabbits after treatment with one drop (50 microL) of a 2% solution at 0 min ((pH 6.4); format: functional, Eye
[15] = organism: Oryctolagus cuniculus; assay: The compound was evaluated for fall in intraocular pressure (IOP) of Glaucomatous rabbits after treatment with one drop (50 microL) of a 2% solution at 90 min (pH 6.4); format: functional, Eye
[16] = organism: Oryctolagus cuniculus; assay: The compound was evaluated for fall in intraocular pressure (IOP) of Narmotensive rabbits after treatment with one drop (50 microL) of a 2% solution at 60 min (pH 6.4); format: functional, Eye
[17] = organism: Oryctolagus cuniculus; assay: The compound was evaluated for fall in intraocular pressure (IOP) of Narmotensive rabbits after treatment with one drop (50 microL) of a 2% solution at 90 min (pH 6.4); format: functional, Eye
[18] = organism: Oryctolagus cuniculus; assay: The compound was evaluated for fall in intraocular pressure (IOP) of Narmotensive rabbits after treatment with one drop (50 microL) of a 2% solution at 30 min (pH 6.4); format: functional, Eye
[19] = organism: Oryctolagus cuniculus; assay: The compound was evaluated for fall in intraocular pressure (IOP) of Normotensive rabbits after treatment with one drop (50 microL) of a 2% solution at 30 min (pH 7.5); format: functional, Eye
[20] = organism: Oryctolagus cuniculus; assay: The compound was evaluated for fall in intraocular pressure (IOP) of Normotensive rabbits after treatment with one drop (50 microL) of a 2% solution at 0 min (pH 7.5); format: functional, Eye
[21] = octanol/water
Description: Partition coefficient (logD) (chloroform/buffer)

[22] = organism: Oryctolagus cuniculus; assay: The compound was evaluated for fall in intraocular pressure (IOP) of Glaucomatous rabbits after treatment with one drop (50 microL) of a 2% solution at 60 min (pH 7.5); format: functional, Eye
[23] = organism: Oryctolagus cuniculus; assay: The compound was evaluated for fall in intraocular pressure (IOP) of Glaucomatous rabbits after treatment with one drop (50 microL) of a 2% solution at 0 min (pH 7.5); format: functional, Eye
[24] = physchem; details: buffer, pH 7.4
[25] = organism: Oryctolagus cuniculus; assay: The compound was evaluated for fall in intraocular pressure (IOP) of Normotensive rabbits after treatment with one drop (50 microL) of a 2% solution at 90 min (pH 7.5); format: functional, Eye
[26] = organism: Oryctolagus cuniculus; assay: The compound was evaluated for fall in intraocular pressure (IOP) of Glaucomatous rabbits after treatment with one drop (50 microL) of a 2% solution at 90 min (pH 7.5); format: functional, Eye
[27] = organism: Oryctolagus cuniculus; assay: The compound was evaluated for fall in intraocular pressure (IOP) of Normotensive rabbits after treatment with one drop (50 microL) of a 2% solution at 60 min (pH 7.5); format: functional, Eye
[28] = organism: Oryctolagus cuniculus; assay: The compound was evaluated for fall in intraocular pressure (IOP) of Glaucomatous rabbits after treatment with one drop (50 microL) of a 2% solution at 30 min (pH 7.5); format: functional, Eye
[29] = not given; remark: listed apart in the source

pKi [6]: 7.46 | pKi [9]: 6.77
SMILES: CN(CC(=O)Nc1nnc(S(N)(=O)=O)s1)C(=N)N
Change in IOP [1]: 0 mmHg | Change in IOP [2]: 0 mmHg | Change in IOP [3]: 13.4 mmHg | Change in IOP [4]: 6.5 mmHg | Change in IOP [5]: 9.1 mmHg | Change in IOP [7]: 8.5 mmHg | Change in IOP [8]: 14.5 mmHg | Change in IOP [10]: 10.1 mmHg

pKi [6]: 7.35 | pKi [9]: 6.49
SMILES: NCC(=O)NCC(=O)Nc1nnc(S(N)(=O)=O)s1
Change in IOP [11]: 7.7 mmHg | Change in IOP [12]: 12 mmHg | Change in IOP [13]: 0 mmHg | Change in IOP [14]: 0 mmHg | Change in IOP [15]: 13.8 mmHg | Change in IOP [16]: 9 mmHg | Change in IOP [17]: 8.9 mmHg | Change in IOP [18]: 5.6 mmHg

kin: 2 h⁻¹ | logD [21]: 0.754 | solubility [24]: 51 mM (≈ 22.9 mg/mL) | pKi [6]: 8.22 | pKi [9]: 7.89 | kin [29]: 5 h⁻¹
SMILES: NCC(=O)NCC(=O)Nc1ccc(S(=O)(=O)Nc2nnc(S(N)(=O)=O)s2)cc1
Change in IOP [19]: 5.9 mmHg | Change in IOP [20]: 0 mmHg | Change in IOP [22]: 11.8 mmHg | Change in IOP [23]: 0 mmHg | Change in IOP [25]: 9.1 mmHg | Change in IOP [26]: 13.1 mmHg | Change in IOP [27]: 8.8 mmHg | Change in IOP [28]: 7 mmHg
